The conditions of series [1]: literature (Haran et al.); cited from earlier work.
The test system of series [2] is MCF 10A human breast epithelial cells. As to the kind of experiment: MTT toxicity against healthy epithelial cells. Type of series: cell-based. Conditions: synergistic ratio R=819 vs single drug. The procedure: (§1) For cell viability studies, BT-474 cells were seeded at a density of 10,000 cells per well in 100 μL cell culture medium, grown overnight and incubated with drug solutions for 72 hours. Cell viability was assessed post drug-incubation via 3-(4,5-Dimethylthiazol-2-yl)-2,5-diphenyltetrazolium bromide (MTT; Invitrogen Life Technologies) assays. Individual drug concentrations which inhibit 50% cell growth (D50) were first determined by fitting dose-effect data to the median-effect model (Chou and Talalay, Advances in Enzyme Regulation 1984, 22, 27-55). For combinatorial studies, 5FU and DOX were simultaneously incubated with BT-474 cells at ratios of differing multiples of their D50 concentrations, and cell viability was subsequently assessed. CI values were further calculated, as previously described (Chou, Pharmacological Reviews 2006, 58(3): p. 621-621), with the designations of CI<1, CI=1, and C>1 respectively representing synergy, additivity, and antagonism. The same methodology was applied to assess interactions between all other chemotherapy combinations presented.
These cell types were chosen because any systemically-administered drug is susceptible to interactions and uptake by endothelial cells, as well as epithelial cells in surrounding healthy tissue.

Series [3] deals with ROS generation in BT-474 cells. As to the kind of experiment: Reactive oxygen species generation, carboxy-H2DCFDA confocal microscopy. Type of series: cell-based, human. Conditions: 72 hours incubation. The procedure:
To visualize and assess the production of reactive oxygen species (ROS), cells were seeded in an 8-well chambered borosilicate coverglass (Nunc Lab-Tek) at a density of 85,000 cells per well in 300 μL medium and grown overnight prior to incubation with drug solutions in fresh medium. After incubation of BT-474 cells with either 5FU and DOX at a molar ratio of 819:1, 5FU alone, or DOX alone for 72 hours, cells were washed three times in PBS and exposed to 10 μM carboxy-H2DCFDA (Invitrogen Life Technologies) in phosphate buffered saline (PBS; Theimo Scientific) for 30 minutes at 37° C. and 5% CO2. Upon acetate cleavage and oxidation, carboxy-H2DCFDA formed carboxydichlorofluorescein and acted as an ROS indicator. Cells were washed thrice more in PBS, finally suspended in cell culture medium, and immediately imaged live using an Olympus Fluoview 1000 spectral confocal microscope. Carboxydichlorofluorescein and DOX were both excited utilizing a 488 nm 10 mW Argon gas laser and visualized with 492-560 nm and 574-674 nm optical filters, respectively. Images were captured as 10 μm z-stacks, and each z-stack was averaged into a single image using ImageJ 1.47 h software (NIH). Fluorescence intensity is reported as the raw integrated density divided by number of cells, determined by DOX fluorescence which coincided with cell nuclei.

The subject of series [4] is BT-474 cells. As to the kind of experiment: Liposomal cancer cell growth inhibition, calcein-AM viability assay. The class given is cell-based, human. As to the method:
(§2) In vitro anticancer efficacy of drug-loaded liposomes was determined via calcein-AM cell viability assay. BT-474 cells or 4T1 cells were seeded in a 96-well cell culture plate at a density of 11,000 cells per well or 1,000 cells per well in a total volume of 100 μL media and allowed to adhere overnight. Media was then replaced with fresh media containing liposomes and incubated for 72 hours or 48 hours for BT-474 or 4T1 cells, respectively. The discrepancies of cell seeding densities and drug incubation times between BT-474 cells and 4T1 cells is due to the much lower doubling time of 4T1 cells compared to BT-474. Parameters were modified such that untreated cells reached 70% confluency after treatment. After incubation with liposomes, media was aspirated and replaced with 1 μM calcein-AM in PBS for 30 minutes at room temperature. Fluorescence intensity of intracellularly hydrolyzed calcein-AM was measured using excitation and emission wavelengths of 490 nm and 520 nm. Fractional cell inhibition was calculated by subtracting fluorescence of live cells in experimental wells from those of untreated cells and normalizing against untreated cells. D50 concentrations were determined by fitting experimental data to the median-effect model (Chou and Talalay, Advances in Enzyme Regulation 1984, 22, 27-55), and their error is reported as the standard error of the model fit.

Series [5] in a line: Drug encapsulation in liposomes (absorbance after dissolution). Particulars: for enhancement of liposomal drug encapsulation relative to 5FU: cationic liposomes; for Drug Incorporation: liposomes 80:10:10 DSPC:DOTAP:Chol containing the 5FU analogue. The class given is physicochemical. The procedure: The dissolved liposomes were centrifuged at 12000 g for 20 minutes to allow the lipids to pellet. […] Drug encapsulation is reported as the mol % of drug with respect to lipids±SD. Liposome sizes and ζ potentials were determined utilizing dynamic light scattering and electrophoretic light scattering, respectively, on a Malvern ZSizer Nano ZS. Samples were diluted 100× in distilled de-ionized water immediately prior analysis, and each measurement is reported as an average of 3 independent sets of at least 13 runs each ±SD. Drug encapsulation was evaluated for each drug, and the encapsulation methods reported here provided the highest yield for each respective drug. […] To remove free drug, liposomes were finally passed through a Sephadex G-25 PD-10 column.

Series [6] can be described thus: Liposome size and zeta potential (dynamic/electrophoretic light scattering). Conditions: liposomes 80:10:10 DSPC:DOTAP:Chol containing the 5FU analogue. The class given is physicochemical. As to the method:
To measure drug encapsulation, 50 μL of drug-loaded liposomes were dissolved in 950 μL methanol through vortexing and sonication. The dissolved liposomes were centrifuged at 12000 g for 20 minutes to allow the lipids to pellet. The supernatant was collected, diluted serially, and their absorbances were measured at 480 nm, 266 nm, 264 nm, 268 nm, 268 nm, and 394 nm to quantify DOX, 5FU, 5FUG, 5FUW, 5FUR, and 5FURW concentrations, respectively. Drug encapsulation is reported as the mol % of drug with respect to lipids±SD. Liposome sizes and ζ potentials were determined utilizing dynamic light scattering and electrophoretic light scattering, respectively, on a Malvern ZSizer Nano ZS. Samples were diluted 100× in distilled de-ionized water immediately prior analysis, and each measurement is reported as an average of 3 independent sets of at least 13 runs each ±SD.

In series [7] the test system is 4T1 murine breast cancer cells. As to the kind of experiment: Liposomal cancer cell growth inhibition, calcein-AM viability assay. The class given is cell-based, mouse. Particulars: 4T1, W concentrations expected during 5FURW cytotoxicity assays, free or liposome-encapsulated. As to the method: as §2
Series [8] has as its system BT-474 human breast cancer cells. As to the kind of experiment: Combination Index (CI) study of free drugs, MTT cell viability. The class given is cell-based. As to the method: as §1
Series [9] deals with 4T1 breast cancer cell line. As to the kind of experiment: 5FURW cell viability studies (Example 4). Particulars: for IC50: Mus musculus. Type of series: cell-based, mouse. As to the method:
(§3) Two breast cancer cell lines (of mouse and human, 4T1 and MDA-MB-231) were tested with the synthesized 5FURW, compared with 5FU and also with encapsulated drug in liposomes functionalized with amino and carboxyl groups (Table 4, FIG. 13).

A short description of series [10]: Encapsulation efficiency and loading capacity of drug-loaded liposomes (Example 4). The class given is physicochemical. Conditions: 5FURW in PEGylated liposomes, 2 h encapsulation. As to the method:
Liposomes were prepared with a mixture of DSPC:DSPE-PEG(2000)Amine or DSPE-PEG(2000)Carboxyl:Cholesterol:DOTAP with the ratio 75:5:10:10 via the thin lipid film formation. After the formation of the lipids and passing them through an extruder to obtain monodisperse 100 nm liposomes, the external solvent was changed using a size exclusion column and the drug encapsulated during two hours. Briefly, the thin lipid films were hydrated with 250 mM (NH4)SO4 to form liposomes containing either amine-terminated PEG or carboxy-terminated PEG. 1 mL of liposomes and 200 μL of 73 mM 5FURW were used for the encapsulation of 5FURW into the liposomes. […]
The encapsulation efficiency and loading capacity were calculated as follows: […]
The liposomes were characterized using (i) the Steward assay to determine lipid concentration, (ii) absorbance at 270 nm to evaluate 5FURW concentration, and (iii) dynamic light scattering measurements to evaluate size and surface potential. […]
The DAFODIL fabrication procedure was performed as follows. […] Characterization consisted of absorbance measurements at 270 nm and 480 nm to determine the concentration of 5FURW and DOX, respectively, dynamic light scattering measurements to measure liposome size and surface potential, and Stewart assay to quantify the concentration of lipids in the sample.

Series [11] deals with MDA-MB-231 breast cancer cell line. As to the kind of experiment: 5FURW cell viability studies (Example 4). Conditions: for IC50: Homo sapiens. The class given is cell-based, human. The procedure:
as §3

Where “and” joins values, the source holds several entries; their conditions need not be identical. Equal entries are not always repeated.

`COc1cccc2c1C(=O)c1c(O)c3c(c(O)c1C2=O)C[C@@](O)(C(=O)CO)C[C@@H]3O[C@H]1C[C@H](N)[C@H](O)[C@H](C)O1` [DOX, doxorubicin]: in [1], the “liposomal encapsulation of DOX” value was 14-24 mol %. For the same compound, in series [2], the “reduction of D50 ratio (BT-474 relative to MCF 10A) by combining at R=819, relative to individual drug” value was 5 fold. Besides, in series [3], the ROS generation result is “Little ROS generation”. Moreover, the IC50 in series [4] (BT-474, 72 hrs, fit to ME model, read-out: D50 (DOX-equivalent concentration inhibiting 50% cell growth)) was 0.3 µM.
With `O=c1[nH]c(=O)n([C@@H]2O[C@H](CO)[C@@H](O)[C@H]2O)cc1F` [5FUR, 5-fluorouridine, reference compound], in series [5], the “enhancement of liposomal drug encapsulation relative to 5FU” value was ~5 fold; the “Drug Incorporation” value is 3.7 mol % and 3.7 ± 0.2 mol %. Further, in series [6], the Size came out at 177.4 ± 2.8 nm and the “Zeta Potential” value was determined as 37.9 ± 1.0 mV.
Turning to `N[C@@H](Cc1c[nH]c2ccccc12)C(=O)O` [tryptophan], the toxicity result in series [7] is “non-toxic”; in [4] (BT-474, W concentrations expected during 5FURW cytotoxicity assays, free or liposome-encapsulated) it was “non-toxic”.
In the case of `NCC(=O)OCn1cc(F)c(=O)[nH]c1=O` [5FUG, 1-[(aminomethyl)-ester]methylene-5-fluorouracil], the “Drug Incorporation” value in series [5] is 1.4 mol % and 1.4 ± 0.5 mol %. Further, in series [6], the Size came out at 161.8 ± 10.8 nm and the “Zeta Potential” value is 41.2 ± 1.8 mV.
For the compound `NC(Cc1c[nH]c2ccccc12)C(=O)OC[C@H]1O[C@@H](n2cc(F)c(=O)[nH]c2=O)C(OC(=O)C(N)Cc2c[nH]c3ccccc23)C1OC(=O)C(N)Cc1c[nH]c2ccccc12` (some centres unmarked) [5FURW, 5-fluorouridine-2′, 3′, 5′-tritryptophanate], in series [5], the “enhancement of liposomal drug encapsulation relative to 5FU” value came out at 38 fold and the “Drug Incorporation” value is given as 26.6 ± 2.4 mol %. The “anticancer activity compared with 5FUR” value in [8] (free solution and liposomes, FIGS. 5A and 5B) was “same anticancer activity as unmodified 5FUR”. Also, in series [6], the Size was 163.8 ± 17.2 nm and the “Zeta Potential” value came out at 32.2 ± 6.5 mV. For the same compound, in [9], the “activity relative to 5FU” value is recorded as 2.5 fold and the IC50 was 41.2 µM. Also, in series [10], the encapsulation efficiency is on record as 20% and the loading capacity was determined as 20%. For the same compound, in series [11], the “activity relative to 5FU” value was found to be 127 fold and the IC50 stood at 0.396 µM.
Take `N[C@@H](Cc1c[nH]c2ccccc12)C(=O)OCn1cc(F)c(=O)[nH]c1=O` [5FUW, (5-fluoro-2,4-dioxo-3,4-dihydropyrimidin-1(2H)-yl)methyl tryptophanate]: the “Drug Incorporation” value in series [5] is 3.2 mol % and 3.2 ± 0.4 mol %. Further, in series [6], the Size was determined as 167.4 ± 1.8 nm and the “Zeta Potential” value came out at 19.6 ± 0.6 mV.
`O=c1[nH]cc(F)c(=O)[nH]1` [5FU, 5-fluorouracil, reference compound]: in series [5], the “Drug Incorporation” value was 0.7 mol % and 0.7 ± 0.2 mol %. In addition, in series [8] (same 5FU concentrations, combination at R=819, FIG. 3B), the “BT-474 cancer cell growth inhibited” value is 40%. Moreover, in series [6], the Size was 173.5 ± 43 nm and the “Zeta Potential” value was found to be 41.7 ± 9.8 mV. Besides, in [2], the “reduction of D50 ratio (BT-474 relative to MCF 10A) by combining at R=819, relative to individual drug” value worked out at 36 fold. For the same compound, the ROS generation entry in series [3] is recorded as “negligible ROS generation”. In addition, in series [9], the IC50 was 104 µM. Besides, the IC50 in [11] turned out to be 50.4 µM.

These data come from patent US11191774B2, “Drug formulations for cancer treatment” (The Regents of the University of California, priority 2015, dated 2021).
